# Source: patent publication US20050255537A1, “Method for monitoring treatment with a parathyroid hormone” (priority 1999, published 2005)
# “And” between values parts separate entries of the source, which are not always exact repeats. Equal entries are not always repeated.
# Assays:
# [1] = tested on: BSAP and PICP serum levels, NTX urine levels; assay: Example 2 clinical trial of rhPTH(1-34) plus hormone replacement therapy vs HRT: bone markers; assay type: in vivo, human; conditions: 40 μg/day PTH plus HRT
# Procedure: • Number of Subjects: • rhPTH(1-34) plus hormone replacement therapy (HRT) (estrogen±progesterone): 122 enrolled, 91 finished. • Control, hormone replacement therapy (estrogen±progesterone) without PTH: 125 enrolled, 105 finished. • Diagnosis and Inclusion Criteria: Women aged 62±8 years, postmenopausal for 15±8 years, selected for a baseline spine bone mineral density of 0.9±0.15 and a T value of −1.8. • Dosage and Administration: • Test Product (blinded) • rhPTH(1-34): 40 μg/day, given subcutaneously plus hormone replacement therapy (estrogen±progesterone). Subjects continued their prestudy hormone replacement therapy, maintained an HRT regimen consistent with local medical practices, took continuous/combined estrogen and progestin therapy using oral Premarin (0.625 mg/day) and oral Provera (2.5 mg/day) (intact uterus), or took estrogen therapy using oral Premarin (0.625 mg/day) (without intact uterus). • Reference (Control) Therapy (Blinded) • Hormone replacement therapy (estrogen±progesterone). Subjects continued their prestudy hormone replacement therapy, maintained an HRT regimen consistent with local medical practices, took continuous/combined estrogen and progestin therapy using oral Premarin (0.625 mg/day) and oral Provera (2.5 mg/day) (intact uterus), or took estrogen therapy using oral Premarin (0.625 mg/day) (without intact uterus). • Duration of Treatment: • rhPTH(1-34): up to 18 months • Control: up to 18 months • Criteria for Evaluation: Spine x-ray, serum biological makers (calcium, bone-specific alkaline phosphatase procollagen I carboxy-terminal propeptide); urine markers (calcium, N-telopeptide, fee deoxypyridinoline); 1,25-dihydroxyvitamin D; bone mineral density: spine, hip, wrist, and total body.
# Measures of BSAP, PICP, and NTX levels were determined for each patient through the course of therapy generally according to methods described above in Example 1.
# [2] = Post-hoc estimates of AUC from the pharmacokinetic model (systemic exposure); conditions: human, in vivo, subcutaneous
# Source text: In order to explore the relationship between concentration and the effect on spine BMD, a pharmacokinetic/pharmacodynamic model was developed. This relationship was best described by a sigmoid Emax model with AUC50 estimated at 170 pg·hr/mL.
# [3] = tested on: men with primary osteoporosis; assay: Example 5 study GHAJ: bone densitometry (BMD, BMC) in men; assay type: in vivo, human; conditions: for Distal Radius (Forearm) BMD, mean change from baseline to endpoint / Distal Radius (Forearm) BMD, mean percent change from baseline to endpoint / Ultradistal Radius (Forearm) BMD, mean change from baseline to endpoint / Ultradistal Radius (Forearm) BMD, mean percent change from baseline to endpoint / Whole body BMD, mean change from baseline to endpoint: subset of patients; for increase in lumbar spine BMD compared to placebo at endpoint: median follow-up approximately 11 months
# Procedure: (§1) Four hundred thirty seven men with primary osteoporosis were enrolled in the study. Approximately one-third of die patients were randomly assigned to LY333334 40 μg/day plus calcium and vitamin D, one-third of the patients were randomly assigned to LY333334 20 μg/day plus calcium and vitamin D, and one-third of the patients were randomly assigned to placebo plus calcium and vitamin D. • Number of Subjects: • PTH: Male 437, Female 0, Total 437; • LY333334 20 μg: Male: Total 151. • LY333334 40 μg: Male: Total 139. • Placebo: Male: Total 147. • Diagnosis and Inclusion Criteria: The study patients were men with primary osteoporosis, aged 30 to 85 years, inclusive. L-2 to L-4 vertebrae must have been intact without artifacts, crush fracture or other abnormalities which would have interfered with the analysis of the posterior-anterior lumbar spine bone mineral density (BMD) measurement which must have been at least 2.0 SD below that of young, healthy men. […] Patient Demographic and Other Baseline Characteristics
# [4] = tested on: serum PICP, serum BSAP, urinary NTX, urinary free deoxypyridinoline; assay: Example 5 study GHAJ: biochemical markers of bone formation and resorption in men; assay type: in vivo, human; conditions: for serum PICP peak concentration above baseline: Month 1
# Procedure: as §1
# [5] = tested on: men with primary osteoporosis; assay: Example 5 study GHAJ: incident nonvertebral fractures; assay type: in vivo, human
# Procedure: as §1
# Although the incidence of nonvertebral fractures was measured, it was not a specified efficacy endpoint. The number of patients reporting at least one incident nonvertebral fracture is tabulated by fracture location in Table 10 (below). […] At individual body sites, the number of fractures was insufficient for a meaningful statistical analysis.
# [6] = about 5-6 weeks following termination (18 months)
structure (smiles),measurement,setting,value
CC[C@H](C)[C@H](NC(=O)[C@H](CCC(=O)O)NC(=O)[C@H](CO)NC(=O)[C@@H](NC(=O)[C@@H](N)CO)C(C)C)C(=O)N[C@@H](CCC(N)=O)C(=O)N[C@@H](CC(C)C)C(=O)N[C@@H](CCSC)C(=O)N[C@@H](Cc1cnc[nH]1)C(=O)N[C@@H](CC(N)=O)C(=O)N[C@@H](CC(C)C)C(=O)NCC(=O)N[C@@H](CCCCN)C(=O)N[C@@H](Cc1cnc[nH]1)C(=O)N[C@@H](CC(C)C)C(=O)N[C@@H](CC(N)=O)C(=O)N[C@@H](CO)C(=O)N[C@@H](CCSC)C(=O)N[C@@H](CCC(=O)O)C(=O)N[C@@H](CCCN=C(N)N)C(=O)N[C@H](C(=O)N[C@@H](CCC(=O)O)C(=O)N[C@@H](Cc1c[nH]c2ccccc12)C(=O)N[C@@H](CC(C)C)C(=O)N[C@@H](CCCN=C(N)N)C(=O)N[C@@H](CCCCN)C(=O)N[C@@H](CCCCN)C(=O)N[C@@H](CC(C)C)C(=O)N[C@@H](CCC(N)=O)C(=O)N[C@@H](CC(=O)O)C(=O)N[C@H](C(=O)N[C@@H](Cc1cnc[nH]1)C(=O)N[C@@H](CC(N)=O)C(=O)N[C@@H](Cc1ccccc1)C(=O)O)C(C)C)C(C)C [LY333334],percent change in PICP serum levels during treatment,[1]; FIG. 5,reached a peak within about one or two months
same,percent change in NTX urine levels during treatment,[1]; FIG. 6,increased steadily until about 6 months after treatment initiation and remained at about the same high level at 12 months
same,BSAP level after termination of PTH treatment,[1]; [6],maintained an elevated level
same,PICP levels after termination of PTH treatment,[1]; [6],PICP levels were the same as HRT controls
same,percent change in NTX levels after termination of PTH treatment,[1]; [6],had declined and approached levels similar to those observed in the control group
same,AUC,[2]; 20 ug,0.365 ng·h/mL
same,AUC,[2]; 40 ug,0.576 ng·h/mL
same,patients with a decrease in vertebral BMD at study endpoint,[3]; 20 μg,7.1%
same,increase in whole body BMC compared with the placebo group,[3]; 20 μg group,approximately 0.9%
same,"Femoral Neck BMD, mean change from baseline to endpoint",[3]; 20 μg/day,0.01 ± 0.03 g/cm^2
same,"Femoral Neck BMD, mean percent change from baseline to endpoint",[3]; 20 μg/day,1.4% and 1.44% and 1.44 ± 3.61%
same,"Intertrochanter BMD, mean change from baseline to endpoint",[3]; 20 μg/day,0.01 ± 0.03 g/cm^2
same,"Intertrochanter BMD, mean percent change from baseline to endpoint",[3]; 20 μg/day,1.20 ± 3.07%
same,"Lumbar Spine (L-1 through L-4) BMD, mean change from baseline to endpoint",[3]; 20 μg/day,0.05 ± 0.04 g/cm^2
same,"Lumbar Spine (L-1 through L-4) BMD, mean percent change from baseline to endpoint",[3]; 20 μg/day,5.7% and 5.73% and 5.73 ± 4.46%
same,"Total Hip BMD, mean change from baseline to endpoint",[3]; 20 μg/day,0.01 ± 0.02 g/cm^2
same,"Total Hip BMD, mean percent change from baseline to endpoint",[3]; 20 μg/day,1.14% and 1.14 ± 2.89%
same,"Trochanter BMD, mean change from baseline to endpoint",[3]; 20 μg/day,0.01 ± 0.03 g/cm^2
same,"Trochanter BMD, mean percent change from baseline to endpoint",[3]; 20 μg/day,1.25 ± 4.15%
same,"Ward's Triangle BMD, mean change from baseline to endpoint",[3]; 20 μg/day,0.01 ± 0.04 g/cm^2
same,"Ward's Triangle BMD, mean percent change from baseline to endpoint",[3]; 20 μg/day,2.48 ± 7.20%
same,increase in hip (femoral neck) BMC at study endpoint,[3]; 20 μg/day,1%
same,increase in lumbar spine BMC at study endpoint,[3]; 20 μg/day,7%
same,"Distal Radius (Forearm) BMD, mean change from baseline to endpoint",[3]; 20 μg/day,−0.00 ± 0.02 g/cm^2
same,"Distal Radius (Forearm) BMD, mean percent change from baseline to endpoint",[3]; 20 μg/day,−0.47 ± 2.21%
same,"Ultradistal Radius (Forearm) BMD, mean change from baseline to endpoint",[3]; 20 μg/day,−0.00 ± 0.01 g/cm^2
same,"Ultradistal Radius (Forearm) BMD, mean percent change from baseline to endpoint",[3]; 20 μg/day,−0.40 ± 3.15%
same,"Whole body BMD, mean change from baseline to endpoint",[3]; 20 μg/day,0.01 ± 0.03 g/cm^2
same,patients with a decrease in vertebral BMD at study endpoint,[3]; 40 μg,6.2%
same,decrease in distal ⅓ radius (forearm) BMD compared with the placebo group,[3]; 40 μg group,1.0%
same,increase in whole body BMC compared with the placebo group,[3]; 40 μg group,1.3%
same,"Femoral Neck BMD, mean change from baseline to endpoint",[3]; 40 μg/day,0.02 ± 0.04 g/cm^2
same,"Femoral Neck BMD, mean percent change from baseline to endpoint",[3]; 40 μg/day,2.9% and 2.85% and 2.85 ± 6.07%
same,"Intertrochanter BMD, mean change from baseline to endpoint",[3]; 40 μg/day,0.02 ± 0.04 g/cm^2
same,"Intertrochanter BMD, mean percent change from baseline to endpoint",[3]; 40 μg/day,2.32 ± 4.57%
same,"Lumbar Spine (L-1 through L-4) BMD, mean change from baseline to endpoint",[3]; 40 μg/day,0.07 ± 0.05 g/cm^2
same,"Lumbar Spine (L-1 through L-4) BMD, mean percent change from baseline to endpoint",[3]; 40 μg/day,8.8% and 8.75% and 8.75 ± 6.25%
same,"Total Hip BMD, mean change from baseline to endpoint",[3]; 40 μg/day,0.02 ± 0.03 g/cm^2
same,"Total Hip BMD, mean percent change from baseline to endpoint",[3]; 40 μg/day,2.33% and 2.33 ± 4.51%
same,"Trochanter BMD, mean change from baseline to endpoint",[3]; 40 μg/day,0.01 ± 0.03 g/cm^2
same,"Trochanter BMD, mean percent change from baseline to endpoint",[3]; 40 μg/day,1.98 ± 5.16%
same,"Ward's Triangle BMD, mean change from baseline to endpoint",[3]; 40 μg/day,0.03 ± 0.05 g/cm^2
same,"Ward's Triangle BMD, mean percent change from baseline to endpoint",[3]; 40 μg/day,6.19 ± 10.21%
same,increase in hip (femoral neck) BMC at study endpoint,[3]; 40 μg/day,3%
same,increase in lumbar spine BMC at study endpoint,[3]; 40 μg/day,10%
same,"Distal Radius (Forearm) BMD, mean change from baseline to endpoint",[3]; 40 μg/day,−0.01 ± 0.02 g/cm^2
same,"Distal Radius (Forearm) BMD, mean percent change from baseline to endpoint",[3]; 40 μg/day,−0.67 ± 2.36%
same,"Ultradistal Radius (Forearm) BMD, mean change from baseline to endpoint",[3]; 40 μg/day,0.00 ± 0.02 g/cm^2
same,"Ultradistal Radius (Forearm) BMD, mean percent change from baseline to endpoint",[3]; 40 μg/day,0.54 ± 5.98%
same,"Whole body BMD, mean change from baseline to endpoint",[3]; 40 μg/day,0.01 ± 0.03 g/cm^2
same,patients with an increase in lumbar spine BMD of 5% or more,[3]; 20-μg group,54.6%
same,lumbar spine BMD increase from baseline by visit,"[3]; 20-μg group, Month 3",2.44%
same,lumbar spine BMD increase from baseline by visit,"[3]; 20-μg group, Month 6",4.29
same,difference in lumbar spine BMD between treatment group and placebo,"[3]; 20-μg group, Month 12",5.49%
same,lumbar spine BMD increase from baseline by visit,"[3]; 20-μg group, Month 12",6.07%
same,increase in lumbar spine BMD compared to placebo at endpoint,[3]; 20-μg/day,5%
same,lumbar spine BMD response in hypogonadal vs idiopathic subgroups,[3]; 20 and 40 μg,did not differ significantly
same,patients with an increase in lumbar spine BMD of 5% or more,[3]; 40-μg group,70.5%
same,lumbar spine BMD increase from baseline by visit,"[3]; 40-μg group, Month 3",3.87%
same,lumbar spine BMD increase from baseline by visit,"[3]; 40-μg group, Month 6",6.33%
same,difference in lumbar spine BMD between treatment group and placebo,"[3]; 40-μg group, Month 12",8.83%
same,lumbar spine BMD increase from baseline by visit,"[3]; 40-μg group, Month 12",9.41%
same,increase in lumbar spine BMD compared to placebo at endpoint,[3]; 40-μg/day,8%
same,distal ⅓ radius (forearm) and ultradistal radius BMD compared with the placebo group,[3]; both 20-μg and 40-μg groups,unchanged
same,urinary N-telopeptide and urinary free deoxypyridinoline,[4]; 20-μg and 40-μg doses,Slightly delayed but significant increases
same,serum PICP peak concentration above baseline,[4]; 20-μg group,33.7%
same,increase in serum BSAP concentration from baseline,"[4]; 20-μg group, Month 12",28.8%
same,serum PICP compared with baseline,"[4]; 20-μg group, Month 12",decreased compared with baseline
same,"urinary NTX percent change from baseline, peak","[4]; 20-μg group, Month 12",approximately 57%
same,serum PICP peak concentration above baseline,[4]; 40-μg group,78.0%
same,"urinary NTX percent change from baseline, peak","[4]; 40-μg group, Month 6",approximately 155%
same,increase in serum BSAP concentration from baseline,"[4]; 40-μg group, Month 12",59.3%
same,serum PICP compared with baseline,"[4]; 40-μg group, Month 12",slightly decreased compared with baseline
same,urinary NTX over baseline,"[4]; 40-μg group, Month 12",approximately 118%
same,bone marker levels after discontinuation,[4]; closeout visit,only serum PICP levels had returned to baseline by the closeout visit
same,patients with at least one incident nonvertebral fracture: Ankle,[5]; 20 μg/day,1
same,patients with at least one incident nonvertebral fracture: Other,[5]; 20 μg/day,0
same,patients with at least one incident nonvertebral fracture: Radius,[5]; 20 μg/day,1
same,patients with at least one incident nonvertebral fracture: Ribs,[5]; 20 μg/day,1
same,patients with at least one incident nonvertebral fracture: Total Patients,[5]; 20 μg/day,2
same,patients with at least one incident nonvertebral fracture: Ankle,[5]; 40 μg/day,0
same,patients with at least one incident nonvertebral fracture: Other,[5]; 40 μg/day,1
same,patients with at least one incident nonvertebral fracture: Radius,[5]; 40 μg/day,0
same,patients with at least one incident nonvertebral fracture: Ribs,[5]; 40 μg/day,0
same,patients with at least one incident nonvertebral fracture: Total Patients,[5]; 40 μg/day,1
same,treatment difference in proportion of patients having at least one incident nonvertebral fracture,"[5]; placebo, 20 and 40 μg/day, p=0.670",no significant treatment difference
